Reference: ChEMBL document CHEMBL4190352, “Continued SAR exploration of 1,2,4-thiadiazole-containing scaffolds in the design of free fatty acid receptor 1 (GPR40) agonists” (Eur J Med Chem, 2017)
Activity calls are given as the source filed them. The calls are words filed in the database; no cut-off is given here.

Columns and labels:
Type in all cases: functional, cell-based
[1] = target: T1, Free fatty acid receptor 1 (Homo sapiens, UniProt O14842); assay: Agonist activity at human GPR40/FFA1 expressed in CHO cells assessed as increase in calcium flux at 1 uM by Fluo-8 AM dye based FLIPR method relative to 10 uM GW9508
[2] = target: T1, Free fatty acid receptor 1; assay: Agonist activity at human GPR40/FFA1 expressed in CHO cells assessed as increase in calcium flux at 1 uM by Fluo-8 AM dye based FLIPR method
[3] = target: T2, Free fatty acid receptor 3 (Homo sapiens) (UniProt O14843); assay: Agonist activity at GPR41/FFA3 (unknown origin) expressed in CHO cells assessed as increase in calcium flux at 10 uM by Fluo-8 AM dye based FLIPR method
T2 sequence (whole entry): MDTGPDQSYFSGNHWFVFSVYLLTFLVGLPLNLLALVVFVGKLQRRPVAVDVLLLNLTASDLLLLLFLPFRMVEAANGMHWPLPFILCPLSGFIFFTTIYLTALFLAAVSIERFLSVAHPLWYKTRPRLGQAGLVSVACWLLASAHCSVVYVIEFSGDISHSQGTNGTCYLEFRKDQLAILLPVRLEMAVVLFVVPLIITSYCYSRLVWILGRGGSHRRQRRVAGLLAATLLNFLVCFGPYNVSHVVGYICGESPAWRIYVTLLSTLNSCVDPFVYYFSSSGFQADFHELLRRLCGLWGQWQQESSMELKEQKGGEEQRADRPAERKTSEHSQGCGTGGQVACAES

[4] = target: T3, Free fatty acid receptor 2 (Homo sapiens) (UniProt O15552); assay: Agonist activity at GPR43/FFA2 (unknown origin) expressed in CHO cells assessed as increase in calcium flux at 10 uM by Fluo-8 AM dye based FLIPR method
T3 sequence (whole entry): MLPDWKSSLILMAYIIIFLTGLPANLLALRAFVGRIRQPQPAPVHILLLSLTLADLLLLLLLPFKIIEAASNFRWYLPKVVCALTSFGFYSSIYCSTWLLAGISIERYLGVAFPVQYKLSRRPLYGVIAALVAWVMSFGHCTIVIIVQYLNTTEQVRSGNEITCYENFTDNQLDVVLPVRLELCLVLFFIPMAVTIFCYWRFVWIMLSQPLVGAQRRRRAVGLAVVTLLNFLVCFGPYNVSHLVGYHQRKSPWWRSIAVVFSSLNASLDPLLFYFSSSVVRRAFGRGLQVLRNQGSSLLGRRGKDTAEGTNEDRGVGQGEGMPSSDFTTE

[5] = target: T4, Free fatty acid receptor 4 (Homo sapiens) (UniProt Q5NUL3); assay: Agonist activity at GPR120/FFA4 (unknown origin) expressed in CHO cells assessed as increase in calcium flux at 10 uM by Fluo-8 AM dye based FLIPR method
T4 sequence (whole entry): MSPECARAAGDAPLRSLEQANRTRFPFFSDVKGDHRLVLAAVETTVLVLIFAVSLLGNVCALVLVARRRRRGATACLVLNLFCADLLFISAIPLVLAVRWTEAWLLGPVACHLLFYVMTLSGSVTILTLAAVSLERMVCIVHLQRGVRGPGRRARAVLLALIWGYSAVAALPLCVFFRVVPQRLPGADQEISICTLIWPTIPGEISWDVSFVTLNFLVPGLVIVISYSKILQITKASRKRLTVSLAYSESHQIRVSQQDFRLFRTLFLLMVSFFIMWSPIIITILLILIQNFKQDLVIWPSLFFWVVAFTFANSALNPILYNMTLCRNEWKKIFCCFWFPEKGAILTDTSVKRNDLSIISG

T1 sequence (O14842 whole entry): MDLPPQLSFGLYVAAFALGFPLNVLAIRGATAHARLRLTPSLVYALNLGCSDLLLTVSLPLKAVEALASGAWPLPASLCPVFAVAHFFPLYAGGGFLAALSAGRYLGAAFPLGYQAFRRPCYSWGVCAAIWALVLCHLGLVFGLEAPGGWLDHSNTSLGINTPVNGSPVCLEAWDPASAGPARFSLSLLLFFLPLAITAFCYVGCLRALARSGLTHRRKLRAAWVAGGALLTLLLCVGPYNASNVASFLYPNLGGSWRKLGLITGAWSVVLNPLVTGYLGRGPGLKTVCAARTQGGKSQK

| SMILES | Activity [1] | EC50 [2] | Activity [3] | Activity [4] | Activity [5] |
| --- | --- | --- | --- | --- | --- |
| O=C(O)COc1ccc(NC(=O)c2nnc(C(=O)Nc3ccc(Cl)cc3)s2)cc1 | 4.2% | > 10 µM | – | – | – |
| Cc1ccc(C)c(OCc2nnc(C(=O)Nc3ccc(CCC(=O)O)cc3)s2)c1 | 88.2% | 1.53 µM | inactive | inactive | inactive |
| COc1ccc(C)cc1NC(=O)c1nnc(C(=O)Nc2ccc(OCC(=O)O)cc2)s1 | 6.6% | > 10 µM | – | – | – |
| O=C(O)COc1ccc(NC(=O)c2nnc(C(=O)Nc3ccccc3)s2)cc1 | 7.8% | > 10 µM | – | – | – |
| Cc1ccc(OCc2nnc(C(=O)Nc3ccc(CCC(=O)O)cc3)s2)c(C)c1 | 74.7% | 2.54 µM | inactive | inactive | inactive |
| Cc1ccc(NC(=O)c2nnc(C(=O)Nc3ccc(OCC(=O)O)cc3)s2)cc1 | 7% | > 10 µM | – | – | – |
| CCOC(=O)c1ccc(NC(=O)c2nnc(C(=O)Nc3ccc(OCC(=O)O)cc3)s2)cc1 | 9.4% | > 10 µM | – | – | – |
| COc1ccc(C(Cc2nnc(C(=O)Nc3ccc(CCC(=O)O)cc3)s2)c2ccccc2)cc1 (centres undefined) | 78.9% | 1.35 µM | inactive | inactive | inactive |
| O=C(O)COc1ccc(NC(=O)c2nnc(C(=O)Nc3ccc(Br)cc3)s2)cc1 | 5.9% | > 10 µM | – | – | – |
| O=C(O)CCc1ccc(NC(=O)c2nnc(Cc3cccc(Cl)c3)s2)cc1 | 79.4% | 2.39 µM | inactive | inactive | inactive |
| O=C(O)COc1ccc(NC(=O)c2nnc(C(=O)Nc3ccccc3F)s2)cc1 | 6% | > 10 µM | – | – | – |
| O=C(O)CCc1ccc(NC(=O)c2nnc(Cc3ccccc3)s2)cc1 | 70.1% | 3.67 µM | inactive | inactive | inactive |
| COc1ccc(OCc2nnc(C(=O)Nc3ccc(CCC(=O)O)cc3)s2)cc1 | 72.5% | 2.43 µM | inactive | inactive | inactive |
| Cc1nnc(NC(=O)c2nnc(C(=O)Nc3ccc(OCC(=O)O)cc3)s2)s1 | 9.8% | > 10 µM | – | – | – |
| Cc1ccc(NC(=O)c2nnc(C(=O)Nc3ccc(OCC(=O)O)cc3)s2)cc1C | 2.8% | > 10 µM | – | – | – |
| O=C(O)COc1ccc(NC(=O)c2nnc(C(=O)Nc3ccc(F)cc3)s2)cc1 | 6% | > 10 µM | – | – | – |
| Cc1cccc(OCc2nnc(C(=O)Nc3ccc(CCC(=O)O)cc3)s2)c1 | 82.4% | 3.26 µM | inactive | inactive | inactive |
| O=C(O)COc1ccc(NC(=O)c2nnc(C(=O)Nc3ccc(F)c(F)c3)s2)cc1 | 6.6% | > 10 µM | – | – | – |
| CCc1ccc(OCc2nnc(C(=O)Nc3ccc(CCC(=O)O)cc3)s2)cc1 | 74.4% | 1.17 µM | inactive | inactive | inactive |

| SMILES | Activity [1] | EC50 [2] | Activity [3] | Activity [4] | Activity [5] |
| --- | --- | --- | --- | --- | --- |
| O=C(O)CCc1ccc(NC(=O)c2nnc(COc3ccc4c(c3)CCC4)s2)cc1 | 91.2% | 1.38 µM | inactive | inactive | inactive |
| Cc1cccc(NC(=O)c2nnc(C(=O)Nc3ccc(OCC(=O)O)cc3)s2)c1 | 6% | > 10 µM | – | – | – |
| CCOC(=O)c1cccc(NC(=O)c2nnc(C(=O)Nc3ccc(OCC(=O)O)cc3)s2)c1 | 6.4% | > 10 µM | – | – | – |
| Cc1ccccc1NC(=O)c1nnc(C(=O)Nc2ccc(OCC(=O)O)cc2)s1 | 6.6% | > 10 µM | – | – | – |
| O=C(O)CCc1ccc(NC(=O)c2nnc(CC(c3ccccc3)c3ccc4c(c3)OCO4)s2)cc1 (centres undefined) | 60.3% | 4.12 µM | inactive | inactive | inactive |
| COc1cccc(NC(=O)c2nnc(C(=O)Nc3ccc(OCC(=O)O)cc3)s2)c1 | 9.2% | > 10 µM | – | – | – |
| O=C(O)COc1ccc(NC(=O)c2nnc(C(=O)Nc3ccc(F)cc3F)s2)cc1 | 6.6% | > 10 µM | – | – | – |
| O=C(O)CCc1ccc(NC(=O)c2nnc(CC(c3ccccc3)c3ccc(Cl)cc3)s2)cc1 (centres undefined) | 84.9% | 2.71 µM | inactive | inactive | inactive |
| O=C(O)CCc1ccc(NC(=O)c2nnc(COc3cccc(Cl)c3)s2)cc1 | 82.9% | 1.57 µM | inactive | inactive | inactive |
| O=C(O)CCc1ccc(NC(=O)c2nnc(Cc3ccc(Cl)cc3)s2)cc1 | 72.3% | 2.39 µM | inactive | inactive | inactive |
| O=C(O)CCc1ccc(NC(=O)c2nnc(Cc3cccc(F)c3)s2)cc1 | 60.3% | 5.02 µM | inactive | inactive | inactive |
| O=C(O)CCc1ccc(NC(=O)c2nnc(CC(c3ccccc3)c3ccccc3F)s2)cc1 (centres undefined) | 68.6% | 1.02 µM | inactive | inactive | inactive |
| Cc1ccc(OCc2nnc(C(=O)Nc3ccc(CCC(=O)O)cc3)s2)cc1C | 64.9% | 1.13 µM | inactive | inactive | inactive |
| O=C(O)CCc1ccc(NC(=O)c2nnc(COc3cccc(C(F)(F)F)c3)s2)cc1 | 70.1% | 3.09 µM | inactive | inactive | inactive |
| Cc1cccc(NC(=O)c2nnc(C(=O)Nc3ccc(OCC(=O)O)cc3)s2)c1C | 6.6% | > 10 µM | – | – | – |
| O=C(O)CCc1ccc(NC(=O)c2nnc(COc3ccc(F)cc3)s2)cc1 | 48.5% | 5.39 µM | inactive | inactive | inactive |
| Cc1ccccc1OCc1nnc(C(=O)Nc2ccc(CCC(=O)O)cc2)s1 | 89.9% | 1.52 µM | inactive | inactive | inactive |
| Cc1ccc(OCc2nnc(C(=O)Nc3ccc(CCC(=O)O)cc3)s2)cc1 | 76.9% | 2.17 µM | inactive | inactive | inactive |
